Experimental data as given in patent US12215140B2, “Method of stabilizing protein contained in specimen and solution for stabilizing protein contained in specimen” (EIKEN KAGAKU KABUSHIKI KAISHA, priority 2018, dated 2025).

Tested on: hemoglobin-haptoglobin complex
Assay: Stability of hemoglobin (as hemoglobin-haptoglobin complex) in samples preserved at 37° C. in preservation solution containing 1 unit/L haptoglobin, Hb measured by latex agglutination method (Examples 1 to 7)
Design: species or system human
Summary of the method: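 Hemoglobin (~300 µg/L) in 0.5% fecal suspension, or without feces, held at 37 °C for 0–21 days in 40 mmol/L HEPES pH 6.8, 0.1% BSA, 0.1% NaN3, 1 unit/L haptoglobin, with 0–100 mmol/L phenylboronic acid ± sugars. Hb quantified by latex agglutination with anti-human Hb rabbit polyclonal; recovery (%) relative to day 0.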

[1] = Feces 3, phenylboronic acid 0.5 mmol/L, 37° C., 7 days
[2] = Feces 3, phenylboronic acid 0.5 mmol/L, 37° C., 14 days
[3] = Feces 3, phenylboronic acid 0.5 mmol/L, 37° C., 21 days
[4] = Feces 3, phenylboronic acid 1 mmol/L, 37° C., 7 days
[5] = Feces 3, phenylboronic acid 1 mmol/L, 37° C., 14 days
[6] = Feces 3, phenylboronic acid 1 mmol/L, 37° C., 21 days
[7] = Feces 3, phenylboronic acid 15 mmol/L, 37° C., 0 days
[8] = Feces 3, phenylboronic acid 15 mmol/L, 37° C., 7 days
[9] = Feces 3, phenylboronic acid 15 mmol/L, 37° C., 14 days
[10] = Feces 3, phenylboronic acid 15 mmol/L, 37° C., 21 days
[11] = Feces 3, phenylboronic acid 50 mmol/L, 37° C., 0 days
[12] = Feces 3, phenylboronic acid 50 mmol/L, 37° C., 7 days
[13] = Feces 3, phenylboronic acid 50 mmol/L, 37° C., 14 days
[14] = Feces 3, phenylboronic acid 50 mmol/L, 37° C., 21 days
[15] = Feces 3, phenylboronic acid 100 mmol/L, 37° C., 0 days
[16] = Feces 3, phenylboronic acid 100 mmol/L, 37° C., 7 days
[17] = Feces 3, phenylboronic acid 100 mmol/L, 37° C., 14 days
[18] = Feces 3, phenylboronic acid 100 mmol/L, 37° C., 21 days
[19] = No feces, phenylboronic acid 0.5 mmol/L, 37° C., 7 days
[20] = No feces, phenylboronic acid 0.5 mmol/L, 37° C., 14 days
[21] = No feces, phenylboronic acid 0.5 mmol/L, 37° C., 21 days
[22] = No feces, phenylboronic acid 1 mmol/L, 37° C., 7 days
[23] = No feces, phenylboronic acid 1 mmol/L, 37° C., 14 days
[24] = No feces, phenylboronic acid 1 mmol/L, 37° C., 21 days
[25] = No feces, phenylboronic acid 15 mmol/L, 37° C., 0 days
[26] = No feces, phenylboronic acid 15 mmol/L, 37° C., 7 days
[27] = No feces, phenylboronic acid 15 mmol/L, 37° C., 14 days
[28] = No feces, phenylboronic acid 15 mmol/L, 37° C., 21 days
[29] = No feces, phenylboronic acid 50 mmol/L, 37° C., 0 days
[30] = No feces, phenylboronic acid 50 mmol/L, 37° C., 7 days
[31] = No feces, phenylboronic acid 50 mmol/L, 37° C., 14 days
[32] = No feces, phenylboronic acid 50 mmol/L, 37° C., 21 days
[33] = No feces, phenylboronic acid 100 mmol/L, 37° C., 0 days
[34] = No feces, phenylboronic acid 100 mmol/L, 37° C., 7 days
[35] = No feces, phenylboronic acid 100 mmol/L, 37° C., 14 days
[36] = No feces, phenylboronic acid 100 mmol/L, 37° C., 21 days

OB(O)c1ccccc1 [phenylboronic acid]
Recovery ratio with respect to Hb concentration after 0 days (Feces 3, phenylboronic acid 0.5 mmol/L, 37° C., 0 days): 100% | Hb concentration [1]: 133 µg/L | Recovery ratio with respect to Hb concentration after 0 days [1]: 47% | Hb concentration [2]: 104 µg/L | Recovery ratio with respect to Hb concentration after 0 days [2]: 37% | Hb concentration [3]: 93 µg/L | Recovery ratio with respect to Hb concentration after 0 days [3]: 33% | Recovery ratio with respect to Hb concentration after 0 days (Feces 3, phenylboronic acid 1 mmol/L, 37° C., 0 days): 100% | Hb concentration [4]: 159 µg/L | Recovery ratio with respect to Hb concentration after 0 days [4]: 57% | Hb concentration [5]: 131 µg/L | Recovery ratio with respect to Hb concentration after 0 days [5]: 47% | Hb concentration [6]: 115 µg/L | Recovery ratio with respect to Hb concentration after 0 days [6]: 41% | Hb concentration (Feces 3, phenylboronic acid 15 mmol/L, no sugar, 0 days at 37° C.): 288 µg/L | Hb concentration (Feces 3, phenylboronic acid 15 mmol/L, no sugar, 7 days at 37° C.): 224 µg/L | Hb concentration (Feces 3, phenylboronic acid 15 mmol/L, no sugar, 14 days at 37° C.): 200 µg/L | Hb concentration (Feces 3, phenylboronic acid 15 mmol/L, no sugar, 21 days at 37° C.): 185 µg/L | Hb concentration [7]: 288 µg/L | Recovery ratio with respect to Hb concentration after 0 days [7]: 100% | Hb concentration [8]: 224 µg/L | Recovery ratio with respect to Hb concentration after 0 days [8]: 78% | Hb concentration [9]: 200 µg/L | Recovery ratio with respect to Hb concentration after 0 days [9]: 69% | Hb concentration [10]: 185 µg/L | Recovery ratio with respect to Hb concentration after 0 days [10]: 64% | Hb concentration [11]: 274 µg/L | Recovery ratio with respect to Hb concentration after 0 days [11]: 100% | Hb concentration [12]: 204 µg/L | Recovery ratio with respect to Hb concentration after 0 days [12]: 74% | Hb concentration [13]: 176 µg/L | Recovery ratio with respect to Hb concentration after 0 days [13]: 64% | Hb concentration [14]: 158 µg/L | Recovery ratio with respect to Hb concentration after 0 days [14]: 58% | Hb concentration [15]: 247 µg/L | Recovery ratio with respect to Hb concentration after 0 days [15]: 100% | Hb concentration [16]: 156 µg/L | Recovery ratio with respect to Hb concentration after 0 days [16]: 63% | Hb concentration [17]: 88 µg/L | Recovery ratio with respect to Hb concentration after 0 days [17]: 36% | Hb concentration [18]: 53 µg/L | Recovery ratio with respect to Hb concentration after 0 days [18]: 21% | Recovery ratio with respect to Hb concentration after 0 days (No feces, phenylboronic acid 0.5 mmol/L, 37° C., 0 days): 100% | Hb concentration [19]: 248 µg/L | Recovery ratio with respect to Hb concentration after 0 days [19]: 96% | Hb concentration [20]: 243 µg/L | Recovery ratio with respect to Hb concentration after 0 days [20]: 95% | Hb concentration [21]: 246 µg/L | Recovery ratio with respect to Hb concentration after 0 days [21]: 96% | Recovery ratio with respect to Hb concentration after 0 days (No feces, phenylboronic acid 1 mmol/L, 37° C., 0 days): 100% | Hb concentration [22]: 244 µg/L | Recovery ratio with respect to Hb concentration after 0 days [22]: 92% | Hb concentration [23]: 241 µg/L | Recovery ratio with respect to Hb concentration after 0 days [23]: 91% | Hb concentration [24]: 244 µg/L | Recovery ratio with respect to Hb concentration after 0 days [24]: 92% | Hb concentration (No feces, phenylboronic acid 15 mmol/L, no sugar, 0 days at 37° C.): 286 µg/L | Hb concentration (No feces, phenylboronic acid 15 mmol/L, no sugar, 7 days at 37° C.): 262 µg/L | Hb concentration (No feces, phenylboronic acid 15 mmol/L, no sugar, 14 days at 37° C.): 253 µg/L | Hb concentration [25]: 286 µg/L | Recovery ratio with respect to Hb concentration after 0 days [25]: 100% | Hb concentration [26]: 262 µg/L | Recovery ratio with respect to Hb concentration after 0 days [26]: 92% | Hb concentration [27]: 253 µg/L | Recovery ratio with respect to Hb concentration after 0 days [27]: 88% | Hb concentration [28]: 264 µg/L | Recovery ratio with respect to Hb concentration after 0 days [28]: 92% | Hb concentration [29]: 260 µg/L | Recovery ratio with respect to Hb concentration after 0 days [29]: 100% | Hb concentration [30]: 242 µg/L | Recovery ratio with respect to Hb concentration after 0 days [30]: 93% | Hb concentration [31]: 228 µg/L | Recovery ratio with respect to Hb concentration after 0 days [31]: 88% | Hb concentration [32]: 235 µg/L | Recovery ratio with respect to Hb concentration after 0 days [32]: 90% | Hb concentration [33]: 239 µg/L | Recovery ratio with respect to Hb concentration after 0 days [33]: 100% | Hb concentration [34]: 198 µg/L | Recovery ratio with respect to Hb concentration after 0 days [34]: 83% | Hb concentration [35]: 183 µg/L | Recovery ratio with respect to Hb concentration after 0 days [35]: 77% | Hb concentration [36]: 178 µg/L | Recovery ratio with respect to Hb concentration after 0 days [36]: 74% | apparent recovery ratio (addition of 50 mmol/L or more phenylboronic acid): decreased | decrease in the apparent recovery ratios (phenylboronic acid 50 mmol/L in preservation solutions to which a sugar (100 mmol/L) was added): not observed | phenylboronic acid concentration at which the recovery ratio of hemoglobin reached the maximum (samples containing feces, 37° C.): 15 mmol/L | improvement of recovery ratio by addition of phenylboronic acid (samples containing no fecal specimens): not observed
